≈ marks a conversion by molar mass, not a printed value.

The record followed here is paper PMC3375340 (Journal of Medicinal Chemistry, 2012).

Assay [1] has as its system M. tuberculosis H37Rv INHr. Kind of assay: microbe, parasite or virus in culture. As to conditions: Mycobacterium tuberculosis. The assay is classed as cell-based.
Assay [2] concerns M. tuberculosis H37Rv RFPr. Briefly: microbe, parasite or virus in culture. The assay is classed as cell-based. As to conditions: Mycobacterium tuberculosis.

`CCCCCC[C@H](CN1CCC(COc2cccc(C(=NOC)c3ccc(Cl)cc3)c2)CC1)OC(N)=O` [(R)-13, (R)-1-(4-((3-((4-Chlorophenyl)(methoxyimino)methyl)phenoxy)methyl)piperidin-1-yl)octan-2-yl carbamate]: the MIC in assay [1] was 1.52 mg/L (≈ 2.87 µM); in assay [2] it was 1.51 mg/L (≈ 2.85 µM).
